Legend:
COX-2 = target: T1, COX-2 (Ovis aries, UniProt P79208); assay: Assay for COX-2 activity (Ovine), PGE2 formation by ELISA; type: biochemical; settings: for COX-2 10 nM (% inhibition) / inhibition at 0.01 µM: 10 nM compound; for COX-2 50 nM (% inhibition) / inhibition at 0.05 µM: 50 nM compound; for Selectivity: IC50 COX1 / IC50 COX2; for IC50: second number of cell COX1/COX2; for inhibition at 0.01 µM: read-out: COX-2 10 nM (% inhibition); for inhibition at 0.05 µM: read-out: COX-2 50 nM (% inhibition)
T1 construct: host or cells: insect cells (membranes, CHAPS-solubilized)
T1 sequence (P79208 17-603): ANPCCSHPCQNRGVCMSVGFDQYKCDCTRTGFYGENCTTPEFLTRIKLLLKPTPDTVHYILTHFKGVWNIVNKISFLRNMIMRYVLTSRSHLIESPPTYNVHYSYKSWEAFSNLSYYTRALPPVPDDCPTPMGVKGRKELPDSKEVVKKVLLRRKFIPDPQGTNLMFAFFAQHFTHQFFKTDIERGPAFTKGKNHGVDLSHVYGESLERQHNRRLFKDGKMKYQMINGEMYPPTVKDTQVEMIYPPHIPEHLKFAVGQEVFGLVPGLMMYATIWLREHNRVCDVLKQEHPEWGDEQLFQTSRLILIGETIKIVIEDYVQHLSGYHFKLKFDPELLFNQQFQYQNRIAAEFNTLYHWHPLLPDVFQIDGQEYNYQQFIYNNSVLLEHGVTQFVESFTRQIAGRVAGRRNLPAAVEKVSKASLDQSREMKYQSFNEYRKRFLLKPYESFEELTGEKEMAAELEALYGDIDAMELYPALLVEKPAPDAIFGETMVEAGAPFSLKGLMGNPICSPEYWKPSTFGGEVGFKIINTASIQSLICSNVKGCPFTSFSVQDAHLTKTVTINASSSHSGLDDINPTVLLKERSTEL
Experimental: (§1) COX activity was assayed as PGE2 formed/μg protein/time using ELISA to detect prostaglandin release. CHAPS-solubilized insect cell membranes containing the appropriate COX enzyme were incubated in a potassium phosphate buffer (50 mM, pH 8.0) containing Tris-HCl, EDTA, phenol, and heme with the addition of arachidonic acid (10 μM). Compounds were pre-incubated with the enzyme for 5-10 minutes prior to the addition of arachidonic acid. Any reaction between the arachidonic acid and the enzyme was stopped after two minutes at 37° C. The PGE2 formed was measured by standard ELISA technology (Cayman Chemical).

[1] = Pharmacokinetics after oral administration in rats; type: in vivo, Male Sprague Dawley rats; settings: rat
Experimental: The animals are housed, fed and cared for according to the Guidelines of the […] Council on Animal Care. Male Sprague Dawley rats (250-300 g) are fasted overnight prior to each PO blood level study. The rats are placed in the restrainer one at a time and the box firmly secured. Compounds are prepared as required, in a standard dosing volume of 500 μL/250 g, and administered orally by passing a 16 gauge, 3″ gavaging needle into the stomach. Rats are catheterized at the carotid at least one day before drug administration and flushed with 30% PVP (400 U/mL of heparin) to prevent clotting in the tip. 250 μL blood samples are collected by unhooking the flush syringe and letting the blood flow freely in centrifuge tube at predetermined time points. The tubes should be centrifuged at 13,000 rpm for 10 min at 4° C. The plasma samples are collected in microcentrifuge tubes and stored immediately at −20° C. until analysis or analyzed immediately. Typical time points for determination of rat blood levels after PO dosing are: 30 min, 1 h, 3 h, 5 h, 7 h, 23 h, 25 h, 28 h, 31 h. A 100 μL aliquot of plasma sample is mixed with 150 μL of acetonitrile. After vortex and centrifuge, 200 μL of the supernatant is dried up under Speed Vac. The residue is reconstituted with 100 μL of methanol. After vortex and centrifuge again, 25 μL of supernatant is analyzed by C-18 HPLC column using UV detector. Quantitation is done relative to a clean blood sample spiked with a known quantity of drug.

COX-1 = target: T2, COX-1 (Ovis aries, UniProt P05979); assay: Assay for COX-1 activity (Ovine), PGE2 formation by ELISA; type: biochemical; settings: for COX-1 10 nM (% inhibition) / inhibition at 0.01 µM: 10 nM compound; for COX-1 50 nM (% inhibition) / inhibition at 0.05 µM: 50 nM compound; for IC50: first number of cell COX1/COX2; for inhibition at 0.01 µM: read-out: COX-1 10 nM (% inhibition); for inhibition at 0.05 µM: read-out: COX-1 50 nM (% inhibition)
T2 construct: host or cells: insect cells (membranes, CHAPS-solubilized)
T2 sequence (P05979 25-600): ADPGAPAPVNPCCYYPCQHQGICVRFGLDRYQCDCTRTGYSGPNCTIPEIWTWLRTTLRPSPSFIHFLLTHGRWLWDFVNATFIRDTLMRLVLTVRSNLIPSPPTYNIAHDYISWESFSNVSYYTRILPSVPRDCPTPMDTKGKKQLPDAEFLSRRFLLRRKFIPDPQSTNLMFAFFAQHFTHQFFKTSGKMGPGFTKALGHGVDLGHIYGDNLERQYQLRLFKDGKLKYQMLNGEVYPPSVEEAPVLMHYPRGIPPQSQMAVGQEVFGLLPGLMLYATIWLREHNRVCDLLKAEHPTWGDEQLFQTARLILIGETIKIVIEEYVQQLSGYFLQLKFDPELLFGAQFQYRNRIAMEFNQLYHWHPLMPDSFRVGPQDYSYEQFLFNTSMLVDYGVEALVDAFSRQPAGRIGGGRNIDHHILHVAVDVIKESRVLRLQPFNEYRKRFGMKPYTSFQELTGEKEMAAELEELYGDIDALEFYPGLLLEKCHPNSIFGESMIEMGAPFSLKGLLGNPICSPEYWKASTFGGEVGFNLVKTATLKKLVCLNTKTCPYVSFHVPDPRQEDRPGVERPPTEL
Experimental: as §1

[2] = system: adjuvant-induced arthritis in rats; assay: Adjuvant-induced arthritis rat model, inhibition of paw swelling; type: in vivo, Male Lewis rats; settings: oral, daily, days 8-15; paw volume day 15

| Compound | COX-2 10 nM (% inhibition) (COX-2) [%] | COX-2 50 nM (% inhibition) (COX-2) [%] | Selectivity (COX-2) | IC50 (COX-2) [nM] | half-life compared with Celecoxib (in words) [1] | COX-1 10 nM (% inhibition) (COX-1) [%] | COX-1 50 nM (% inhibition) (COX-1) [%] | IC50 (COX-1) [nM] | inhibition at 0.01 µM (COX-2) [%] | inhibition at 0.05 µM (COX-2) [%] | inhibition at 0.01 µM (COX-1) [%] | inhibition at 0.05 µM (COX-1) [%] | selectivity for the inhibition of COX-2 over COX-1 (in words) (COX-2) | pharmacology (pharmacokinetic) profile (in words) [1] | potency in controlling inflammation (in words) [2] |
| --- | --- | --- | --- | --- | --- | --- | --- | --- | --- | --- | --- | --- | --- | --- | --- |
| N=C(Nc1ccc(S(N)(=O)=O)cc1)c1nnc(-c2ccccc2)s1 [Example 32, N-[4-(Aminosulfonyl)phenyl]-3-[2-(phenyl)-1,3,4-thiadiazol-5-yl]carboximidamide] | 85 | 94 | 17 | 4.8 | longer half-life | 15 | 45 | 79 | – | – | – | – | – | – | – |
| CS(=O)(=O)c1ccc(-n2cc(C(F)(F)F)nc2-c2nnc(-c3ccccc3)s2)cc1 [Example 44, 1-[4-(Methylsulfonyl)phenyl]-2-(2-phenyl-1,3,4-thiadiazol-5-yl)-4-(trifluoromethyl)-1H-imidazole] | – | – | 12 | 2.3 | – | – | – | 27 | 95 | 100 | 30 | 45 | – | – | – |
| NS(=O)(=O)c1ccc(-n2cc(C(F)(F)F)nc2-c2nnc(-c3ccccc3)s2)cc1 [Example 48, 1-[4-(Aminosulfonyl)phenyl]-2-[2-(phenyl)-1,3,4-thiadiazol-5-yl]-4-(trifluoromethyl)-1H-imidazole] | – | – | 90 | 0.4 | longer half-life | – | – | 36 | 84 | 100 | 10 | 25 | good selectivity | excellent pharmacology profile | good potency in controlling inflamation |
| CS(=O)(=O)c1ccc(-n2cc(C(F)(F)F)nc2-c2nnc(Nc3ccccc3)s2)cc1 [Example 52, 1-[4-(Methylsulfonyl)phenyl]-2-[2-(N-anilino)-1,3,4-thiadiazol-5-yl]-4-(trifluoromethyl)-1H-imidazole] | 98 | – | 12 | 5.1 | – | 31 | – | 62 | – | – | – | – | – | – | – |
| Cc1onc(-c2ccccc2)c1-c1ccc(S(N)(=O)=O)cc1 [Valdecoxib, reference compound] | – | – | – | – | – | – | – | – | – | – | 2 | – | – | – | – |
| N-[4-(Aminosulfonyl)phenyl]-3-[2-(4-fluorophenyl)-1,3,4-thiadiazol-5-yl]carboximidamide [Example 33] | 84 | 100 | 11 | 3.3 | longer half-life | 23 | 52 | 36 | – | – | – | – | – | – | – |

From patent publication US6555563B1, “Heteroaryl substituted amidinyl and imidazolyl compounds and methods employing same for the treatment of inflammation” (Medinox, Inc., priority 2001, dated 2003)
